{"source": "patent US20030086869A1", "about": "“Methods and kits for diagnosing a pancreatic-based fat malabsorption disorder” (priority 2001, published 2003)", "key": {"[1]": {"test": "Malabsorption Blood Test (MBT): serum levels of PA and HA after oral PA and THA test breakfast meal in healthy control subjects", "format": "in vivo, human", "procedure": "(§1) Both whole post-absorptive serum and isolated chylomicron fractions of the serum are analyzed for fatty acid composition. Chylomicrons are isolated from plasma by centrifugation at d=1.006 g/ml for 30 minutes at 26,000 g (Hatch, F. T., et al., 1968; Adv. Lipid Res., 6:1-68). Total lipids are extracted from each specimen following the method of Bligh and Dyer (Bligh, E. G., et al., 1959; Can. J. Biochem., 37:911-917). Following transmethylation of the lipid extracts using BF3-methanol, fatty acid composition is determined using gas-liquid chromatographic (GLC) analysis using a Hewlett Packard GLC equipped with a flame ionization detector, an automatic 7673 sampler and […]×0.25 mm ID column composed of a 0.20 micron film of SP-2560 (Supelco, Bellefonte, Pa.) (Morrison, W., et al., 1964; J. Lipid Res. 5:600-608). The temperature is programmed to change from 140° C. to 240° C. at a rate of 4° C./minute. At the time of extraction, heptadecanoic methyl ester is added as an internal standard.\nHealthy control subjects between 18 and 50 years of age were selected. Exclusion criteria included: any chronic illness known to affect nutrient absorption, body mass index (BMI) <21 or >30 kg/m^2 (generally accepted healthy adult ranges), therapy with lipid lowering drugs, diabetes mellitus (NIDDM and IDDM), disorders associated with altered energy metabolism (e.g., hypothyroidism) and disinterest in participating in all three dosing experiments. This adult age range was selected for several reasons: (a) adult subjects are likely to remain committed to all three components of the study; (b) adults will understand the need to provide reliable feedback on taste and tolerance of the test breakfast meal and the entire malabsorption test procedure; and (c) adult subjects are able to plan the experimental day for full cooperation with the multiple phlebotomy events from 0700 to 1500 hours.\nUpon arrival at the study center, subjects had their weight and height measured and an experienced phlebotomist inserted a self-retaining intravenous catheter with a heparin lock for serial blood sampling. After initially drawing 2 milliliters of blood into a sterile syringe, the experimental blood sample (2 milliliters) was drawn and immediately stored in a 4-milliliter serum separator tube. Thereafter, the initial 2 milliliters of blood was infused back into the catheter followed by 2 milliliters of heparin flush. After the baseline blood samples were obtained, the subjects drank an approximately 8 to 12 ounce liquid test breakfast meal. This meal contained one to three doses of PA and THA in a random distribution. Subjects were asked to consume the test breakfast meal within five minutes. Thereafter, serial blood samples were obtained at regular intervals over a period ranging from 30 minutes to 24 hours. During the initial eight-hour period, subjects were permitted to ingest non-caloric and non-caffeinated beverages. A study protocol lunch of known fat content was provided and actual food intake was recorded. Ambulation was limited to maintain adherence to the 30 to 60 minute intervals in the blood sampling schedule. After completion of the blood sampling, the catheter was removed, a snack was offered, and the subjects were encouraged to consume a full meal. The lipid doses (mg/kg) of PA and THA used in this experiment were based on doses 10-fold higher than similar fats used to correct essential fatty acid deficiency in cystic fibrosis, and previous studies which used ^13C […] to qualitatively assess fat malabsorption in pancreatic disease (Rosenlund, M. L., et al., 1977;Pediatrics, 59:428-32; Wutzke, K. D., et al., 1999; J. Pediatr. Gastroenterol. Nutr., 29:148-54).\nFour healthy control subjects were administered a dose of 30 mg/kg PA and 30 mg/kg THA in the digestible composition (a liquid breakfast shake) after a 12-hour fast. Blood was drawn at baseline before consumption of the shake and then every 30 minutes thereafter until hour 6. […]"}, "[2]": {"test": "MBT absorption of PA and HA prior to Orlistat in fifteen healthy subjects", "format": "in vivo, human", "details": "PA 2.5 grams and THA 8.0 grams, FIG. 10, 11", "excerpt": "Fifteen healthy adult subject volunteers (9 women) 18 to 50 years of age were recruited through local advertisements. Exclusion criteria included: any chronic illness known to affect nutrient absorption, body mass index (BMI) of less than 21 or greater than 30 kg/m^2 (i.e., outside of generally accepted healthy adult ranges), therapy with lipid lowering drugs, diabetes mellitus (NIDDM, IDDM) and disorders associated with altered energy metabolism (e.g., hypothyroidism). This adult age range was selected because Orlistat is FDA approved in adults. In addition, adults are able to plan the experimental days for cooperation with four days of the research study diet, outpatient 72-hour stool collection and phlebotomy requirements. […]\nSubjects underwent a 12-hour fast from 2100 hours on day #1 of the study. […] Upon arrival at the study center on the morning of day #2, subjects had their weight and height measured, and an experienced phlebotomist inserted a self-retaining intravenous catheter with a heparin lock for serial blood sampling. […] The number and timing of blood samples was determined by the experiments in Example 1, and was expected to be six or fewer samples over an eight-hour or less time period. […]"}, "[3]": {"test": "MBT serum levels of PA and HA in subjects with CF and pancreatic insufficiency on and off pancreatic enzymes", "format": "in vivo, human", "procedure": "as §1\nSubjects with CF and pancreatic insufficiency currently treated with pancreatic enzymes, aged greater than 8 years were recruited. Exclusion criteria included: forced expiratory volume of the lungs at 1 second (FEV1) <40%, a history of fibrosing colonopathy or significant bowel resection (>10 cm), mental retardation, significant neurological deficit, developmental disability and autism. Subjects are in their usual state of good health. This age range was selected because it includes children during active growth where information regarding degree of malabsorption leads to improved nutritional intervention and pancreatic enzyme therapy. Also, children greater than 8 years of age are mature enough to provide assent and feedback concerning acceptability and tolerance of the MBT.\nIn the experiments shown in FIGS. 12 through 15, three subjects with CF were given either 30 mg/kg PA and 60 mg/kg THA (2 subjects) or 30 mg/kg PA and 90 mg/kg THA (1 subject) in a digestible composition consisting of a liquid breakfast shake after a 12 hour fast. The subjects were tested while they were taking their usual doses of pancreatic enzymes and then were tested again (more than one week later) when they were not taking pancreatic enzymes. Blood was sampled at baseline and then at hourly intervals from 2 to 8 hours and then sampled again at 24 hours. Subjects were fed a prepared lunchtime meal with a known quantity of fat (80 grams). The individual results for fat absorption for the 3 subjects with CF on enzymes are presented in FIG. 12 for PA and FIG. 13 for HA. For the same 3 subjects with CF off enzymes, the results for fat absorption are presented in FIG. 14 for PA and FIG. 15 for HA.\nAdditional experiments were performed on six subjects with CF either on or off pancreatic enzyme treatment. The serum levels of PA and HA in these six subjects on and off pancreatic enzyme treatment are presented in FIG. 16 anf FIG. 17, respectively."}, "[4]": {"target": "T1, pancreatic lipase (Homo sapiens, UniProt P16233)", "T1 construct": "from tissue; host or cells: in vivo: endogenous pancreatic secretion in the small intestine of healthy adult subjects", "T1 sequence (P16233 17-465)": "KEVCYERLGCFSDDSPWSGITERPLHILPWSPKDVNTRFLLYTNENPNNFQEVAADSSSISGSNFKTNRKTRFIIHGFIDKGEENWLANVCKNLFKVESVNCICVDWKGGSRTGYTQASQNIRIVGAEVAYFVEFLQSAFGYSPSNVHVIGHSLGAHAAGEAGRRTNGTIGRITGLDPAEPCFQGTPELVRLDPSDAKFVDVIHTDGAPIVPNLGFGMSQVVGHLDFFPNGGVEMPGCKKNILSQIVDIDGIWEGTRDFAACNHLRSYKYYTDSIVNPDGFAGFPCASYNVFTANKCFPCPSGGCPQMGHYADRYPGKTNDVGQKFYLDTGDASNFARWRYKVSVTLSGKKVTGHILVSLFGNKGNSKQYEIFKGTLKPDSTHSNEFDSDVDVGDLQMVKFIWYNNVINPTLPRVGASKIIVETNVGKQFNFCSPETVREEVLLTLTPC", "T1 sequence (P04118 23-112 partner)": "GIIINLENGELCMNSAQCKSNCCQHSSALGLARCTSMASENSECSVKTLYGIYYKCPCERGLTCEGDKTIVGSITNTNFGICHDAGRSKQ", "test": "MBT before and after Orlistat treatment in healthy adult subjects (pharmaceutically induced fat malabsorption)", "format": "in vivo", "procedure": "Analysis of the baseline and subsequent half-hourly or hourly serum samples taken for up to eight hours for the three doses of pentadecanoic acid (PA) and triglyceride containing heptadecanoic fatty acids (THA) are used to create time-dependent measured and normalized measured (see below) dosage response curves. Each concentration is analyzed independently for each subject and as a complete set for all subjects to determine the rates of absorption, distribution, and elimination for each of the measured fatty acids PA and heptadecanoic acid (HA) and the pancreatic enzyme activity for the hydrolysis of THA. The simplest model to determine a coefficient of fat absorption and an index of pancreatic enzyme activity is derived from the set of normal subjects and subsequently applied to subjects before and during therapy with a pancreatic enzyme inhibitor (Orlistat). Finally, this model is applied to subjects with CF receiving various levels of enzyme therapy to determine their coefficient of fat absorption and their index of enzymatic activity. In the simplest possible situation, the measured levels of both HA and PA are dose independent and reach an early and prolonged steady state in either whole plasma or in the chylomicron fraction. In that case, the normalized PA and HA can be compared against a CFA measured using the conventional standard 72 hour stool and diet collection method for the same patient and an appropriate conversion factor (which may be dependent upon the BMI) can be determined from the data. The ratio of the normalized HA to the normalized PA is defined as an index reflecting the pancreatic enzymatic activity profile during the absorption phase. The data is analyzed for any dependence of this index upon the patient's age or BMI. The comparisons before and after therapy with Orlistat are expected to reflect a decrease in this index of approximately 70%. […]"}, "[5]": {"details": "four healthy control subjects, 30 mg/kg PA and 60 mg/kg THA, FIG. 3A, 4, 5A"}, "[6]": {"details": "four healthy control subjects, 30 mg/kg PA and either 60 or 90 mg/kg THA oral, FIG. 1 model"}, "[7]": {"details": "subjects with CF on pancreatic enzymes"}}, "data": [{"smiles": "CCCCCCCCCCCCCCCCC(=O)O", "note": "[HA, heptadecanoic acid]", "values": [{"measurement": "delay before rise in serum concentration", "setting": "[1]; four healthy control subjects, 30 mg/kg PA and 30 mg/kg THA, liquid breakfast shake after 12-hour fast, FIG. 2", "result": "3 to 4", "unit": "h"}, {"measurement": "time at which increase in serum level is evident / begins", "setting": "[1]; [5]", "result": 3, "unit": "h"}, {"measurement": "time of peak serum level", "setting": "[1]; [5]", "result": 6, "unit": "h"}, {"measurement": "time of peak serum level", "setting": "[1]; four healthy control subjects, 30 mg/kg PA and 90 mg/kg THA, FIG. 6-8", "result": 6, "unit": "h"}, {"measurement": "peak serum level", "setting": "[1]; four healthy control subjects, 30 mg/kg PA and either 60 or 90 mg/kg THA oral at baseline, FIG. 1 model", "result": "approximately 3 mg/dL"}, {"measurement": "time of peak serum level", "setting": "[1]; [6]", "result": 6, "unit": "h"}, {"measurement": "time post-dose before serum level rises", "setting": "[1]; [6]", "result": "two"}, {"measurement": "concentration at 8 h", "setting": "[1]; human, serum, four healthy control subjects, 30 mg/kg PA and either 60 or 90 mg/kg THA oral, FIG. 1 model, read-out: serum level by eight hours post dose", "result": "~10", "unit": "µg/mL"}, {"measurement": "time up to which serum response continued to increase (sharp decrease after)", "setting": "[1]; six healthy volunteers, PA 2.5 grams and THA 5.0 or 8.0 grams, FIG. 5B", "result": 6, "unit": "h"}, {"measurement": "average absorption", "setting": "[2]", "result": "approximately 45%"}, {"measurement": "serum level response", "setting": "[3]; subjects with CF off pancreatic enzymes", "result": "no increase in serum levels"}, {"measurement": "delay before serum levels increased", "setting": "[3]; [7]", "result": 2, "unit": "h"}, {"measurement": "time of peak serum level", "setting": "[3]; [7]", "result": "approximately 6 hours"}, {"measurement": "serum levels compared with healthy control subjects", "setting": "[3]; subjects with CF taking pancreatic enzymes", "result": "lower"}]}, {"smiles": "CCCCCCCCCCC[C@@H](C[C@@H]1OC(=O)[C@H]1CCCCCC)OC(=O)[C@H](CC(C)C)NC=O", "note": "[Orlistat]", "values": [{"measurement": "expected decrease in index of pancreatic enzymatic activity (ratio of normalized HA to normalized PA) after therapy with Orlistat", "setting": "[4]; comparison before and after therapy with Orlistat, expected value of the model", "result": "approximately 70%"}, {"measurement": "expected estimated pancreatic enzyme activity in the presence of Orlistat, relative to normal (unsuppressed) activity", "setting": "[4]; fraction of absorbed HA versus fraction of absorbed PA, expected value of the model", "result": "about 70%"}, {"measurement": "serum response of PA prior to versus after receiving Orlistat", "setting": "[4]; healthy subjects, Orlistat 240 mg TID, PA 2.5 grams and THA 8.0 grams, FIG. 9", "result": "similar"}]}]}
